Source: ChEMBL document CHEMBL4393671, “Design of a Cyclin G Associated Kinase (GAK)/Epidermal Growth Factor Receptor (EGFR) Inhibitor Set to Interrogate the Relationship of EGFR and GAK in Chordoma” (J Med Chem, 2019)
pIC50: −log10 of the molar value.

Experiments:
cells [1] = type: functional, cell-based; details: Homo sapiens, UCH1, 72 h
Description: Antiproliferative activity against human UCH1 cells measured after 72 hrs by alamar blue assay

cells [2] = type: functional, cell-based; details: Homo sapiens, UCH2, 72 h
Description: Antiproliferative activity against human UCH2 cells measured after 72 hrs by alamar blue assay

| SMILES | pIC50 (cells [1]) | pIC50 (cells [2]) |
| --- | --- | --- |
| COc1cc(Nc2c(C#N)cnc3cc(OCCCN4CCN(C)CC4)c(OC)cc23)c(Cl)cc1Cl [BOSUTINIB] | 4.82 | 4.44 |
| CCOc1cc2ncc(C#N)c(Nc3ccc(F)c(Cl)c3)c2cc1NC(=O)/C=C/CN(C)C [PELITINIB] | 7.05 | 5.80 |
| C=CC(=O)Nc1cc2c(Nc3ccc(F)c(Cl)c3)ncnc2cc1OCCCN1CCOCC1 [CANERTINIB] | 7.10 | 4.77 |
| COc1cc2ncnc(Nc3ccc(F)c(Cl)c3)c2cc1NC(=O)/C=C/CN1CCCCC1 [DACOMITINIB ANHYDROUS] | 7.30 | 5.57 |
| CN(C)C/C=C/C(=O)Nc1cc2c(Nc3ccc(F)c(Cl)c3)ncnc2cc1O[C@H]1CCOC1 [AFATINIB] | 7.00 | 5.19 |
| CN1CCN(CCOc2cc(OC3CCOCC3)c3c(Nc4c(Cl)ccc5c4OCO5)ncnc3c2)CC1 [SARACATINIB] | 5.37 | 4.55 |
| CCOc1cc2ncc(C#N)c(Nc3ccc(OCc4ccccn4)c(Cl)c3)c2cc1NC(=O)/C=C/CN(C)C [NERATINIB] | 5.26 | 5.62 |

The next lines start with the values.

| pIC50 (cells [1]) | pIC50 (cells [2]) | SMILES |
| --- | --- | --- |
| 6.96 | 5.09 | C=CC(=O)N1CCC(Oc2cc3c(Nc4ccc(Cl)c(Cl)c4F)ncnc3cc2OC)CC1 [POZIOTINIB] |
| 6.38 | 5.24 | CNC(=O)CN1CCC(Oc2cc3c(Nc4cccc(Cl)c4F)ncnc3cc2OC)CC1 [SAPITINIB] |
| 6.00 | 5.38 | COc1cc2/c(=N/c3ccc(Br)cc3F)nc[nH]c2cc1OCC1CCN(C)CC1 [VANDETANIB] |
| 6.82 | 5.96 | COc1cc2c(Nc3ccc(Cl)c(Cl)c3F)ncnc2cc1OC[C@@H]1C[C@@H]2CN(C)C[C@@H]2C1 [TESEVATINIB] |
